The results in this text go back to patent publication US10188690B2, “Use of Kaempferia parviflora wall. ex. baker extracts or flavone compound for preventing or treating muscle diseases, or improving muscle function” (AAT COSTECH CO., LTD., priority 2012, dated 2019).

One assay relates to MuRF1. Kind of assay: RT-PCR of MuRF1 mRNA in differentiated L6 cells treated with TNF-α. Type of assay: cell-based. Conditions: TNF-α 24 hours, then 5,7-dimethoxyflavone 1 or 5 μM, normalized by β-actin, FIG. 1. Here is the method:
(§1) Muscle cell-line L6 myoblast (American Type Culture Collection, Manassas, Va., USA) was cultured in DMEM (10% FBS, 100 U/mL penicillin, 100 µg/mL streptomycin). When the cell density reached approximately 80˜85%, differentiation was induced for six days by replacing the culture medium with DMEM growth medium supplemented with 2% FBS for further experiments. In order to evoke muscle reduction in the differentiated L6 cells, cells were treated with TNF-α for 24 hours followed by the treatment with 5,7-dimethoxyflavone prepared in Example 2-1 at different concentrations (1 or 5 μM). RT-PCR experiments were performed to examine the expression levels of atrogin-1 and MuRF1, major ligases involved in protein catabolism in the muscles. Total RNA was obtained from the differentiated cells using Trizol (Invitrogen, Carlsbad, Calif., USA) and subjected to reverse transcription as follows. Total RNA isolated as above was reverse-transcribed using reverse transcriptases. The following primers were used for RT-PCR experiments.
(§2) Relative levels of mRNA for each gene was normalized by the value of β-actin.

The next assay relates to PI3K. Description: Western blot of PI3K protein in L6 cells. Conditions: 5,7-dimethoxyflavone 1 or 5 μM (FIG. 3), extract 1 or 10 μg/ml (FIG. 5). Type of assay: cell-based. The procedure:
as §1
(§3) L6 cells were treated in the same manner as Experimental example 1, and were lysed with RIPA buffered solution containing a proteinase inhibitor cocktail. […] Protein bands were visualized using ECL western blotting detected reagents (Amersham, Tokyo, Japan). […]
Background: In western blotting, separated proteins are transferred to a membrane and probed.

In a further assay the test system is p-mTOR. Kind of assay: Western blot of p-mTOR protein in L6 cells. Type of assay: cell-based. Conditions: 5,7-dimethoxyflavone 1 or 5 μM (FIG. 3), extract 1 or 10 μg/ml (FIG. 5). Here is the method: as §1, §3
The test system of the next assay is atrogin-1. Kind of assay: RT-PCR of atrogin-1 mRNA in differentiated L6 cells treated with TNF-α. It counts as cell-based. To be noted: TNF-α 24 hours, then 5,7-dimethoxyflavone 1 or 5 μM, normalized by β-actin, FIG. 1. Here is the method: as §1, §2
In the next assay the test system is p-Akt. Description: Western blot of p-Akt protein in L6 cells. Conditions: 5,7-dimethoxyflavone 1 or 5 μM (FIG. 3), extract 1 or 10 μg/ml (FIG. 5). Type of assay: cell-based. Here is the method: as §1, §3
For another assay, the system named is myoD. Kind of assay: RT-PCR of myoD mRNA in differentiated L6 cells. It counts as cell-based. Conditions: 5,7-dimethoxyflavone 1 or 5 μM (FIG. 2), extract 1 or 10 μg/ml (FIG. 4), normalized by β-actin.
The next assay has as its system myogenin. Kind of assay: RT-PCR of myogenin mRNA in differentiated L6 cells. It counts as cell-based. Conditions: 5,7-dimethoxyflavone 1 or 5 μM (FIG. 2), extract 1 or 10 μg/ml (FIG. 4), normalized by β-actin.
The next assay deals with Wistar rats. Kind of assay: Muscle mass in the TNF-α-induced myatrophy animal model. Type of assay: in vivo. To be noted: once daily for eight weeks, extract 500 mg/kg, flavones 300 mg/kg; for Calf muscle weight: TNF-α 100 ng/g for two weeks, TNF-α control 437 mg; for muscle weight compared to the control levels: TNF-α-induced myatrophy, p<0.01. The procedure:
Five-week-old Wistar rats were acclimated for one week and myatrophy was induced by supplying TNF-α at the dose of 100 ng/g for two weeks. Afterwards, rats were randomly divided according to body weight into a total of 4 groups, each consisting of 8 rats. Each of the Kaempferia parviflora extract and flavone compounds was suspended in 0.25% carboxymethylcellulose and administered once daily for eight weeks at the dose of 500 mg/kg body weight for the Kaempferia parviflora extract, 300 mg/kg body weight for each of 5,7-dimethoxyflavone, 5,7,4′-trimethoxyflavone and 3,5,7,3′,4′-pentamethoxyflavone. The control group was administered with the same amount of 0.25% carboxymethylcellulose only as well as TNF-α.
After eight weeks of treatments, calf muscles were dissected out and weighed using microbalance (Mettler PE160, USA).

Turning to `COc1cc(OC)c2c(=O)cc(-c3ccccc3)oc2c1` [5,7-dimethoxyflavone], the “mRNA level of MuRF1” value in the assay with MuRF1 is given as “reduces”. Also, the “protein level of PI3K” value with PI3K is “upregulate”. Also, in the assay with p-mTOR, the “protein level of p-mTOR” value is “upregulate”. Moreover, the “mRNA level of atrogin-1” value in the assay on atrogin-1 was “reduces”. Moreover, the “protein level of p-AKT” value with p-Akt is given as “upregulate”. Also, the “mRNA level of myoD” value with myoD is recorded as “increases”. Moreover, the “mRNA level of myogenin” value in the assay with myogenin is “increases”. In addition, in the assay on Wistar rats, the “Calf muscle weight” value was 551 mg and the “muscle weight compared to the control levels” value was determined as 126%.

`COc1ccc(-c2cc(=O)c3c(OC)cc(OC)cc3o2)cc1` [5,7,4′-trimethoxyflavone]: in the assay on Wistar rats, the “Calf muscle weight” value is on record as 519 mg and the “muscle weight compared to the control levels” value is 118%.

Regarding `COc1cc(OC)c2c(=O)c(OC)c(-c3ccc(OC)c(OC)c3)oc2c1` [3,5,7,3′,4′-pentamethoxyflavone], in the assay on Wistar rats, the “Calf muscle weight” value is 528 mg and the “muscle weight compared to the control levels” value came out at 120%.
